Laboratory results taken from ChEMBL document CHEMBL4393707, “Synthesis and evaluation of new quinazolin-4(3H)-one derivatives as potent antibacterial agents against multidrug resistant Staphylococcus aureus and Mycobacterium tuberculosis” (Eur J Med Chem, 2019).
In brackets after ≈: the same amount, converted by molar mass. Activity calls are given as the source filed them. No cut-off for these calls is given here.

What was measured:
Escherichia coli = assay: Antibacterial activity against Escherichia coli ATCC 25922 incubated for 16 to 18 hrs by broth microdilution assay; type: functional
Staphylococcus aureus [1] = assay: Antibacterial activity against Staphylococcus aureus ATCC 29213 incubated for 16 to 18 hrs by broth microdilution assay; type: functional
Pseudomonas aeruginosa = assay: Antibacterial activity against Pseudomonas aeruginosa ATCC 27853 incubated for 16 to 18 hrs by broth microdilution assay; type: functional
Acinetobacter baumannii = assay: Antibacterial activity against Acinetobacter baumannii BAA1605 incubated for 16 to 18 hrs by broth microdilution assay; type: functional
[2] = Cytotoxicity against African green monkey Vero cells assessed as reduction in cell viability after 72 hrs by MTT assay; type: cell-based; settings: chlorocebus sabaeus
[3] = Selectivity index, ratio of CC50 for African green monkey Vero cells to MIC for Staphylococcus aureus ATCC 29213; type: toxicity; settings: read-out: Selectivity Index
Klebsiella pneumoniae = assay: Antibacterial activity against Klebsiella pneumoniae ATCC BAA-1705 incubated for 16 to 18 hrs by broth microdilution assay; type: functional
[4] = system: Mycobacterium tuberculosis; assay: Antitubercular activity against Mycobacterium tuberculosis H37Rv after 7 days by resazurin dye based assay; type: functional; settings: 168 h
[5] = Selectivity index, ratio of CC50 for African green monkey Vero cells to MIC for Mycobacterium tuberculosis H37Rv; type: toxicity; settings: read-out: Selectivity Index
Staphylococcus aureus [6] = assay: Antibacterial activity against methicillin-resistant Staphylococcus aureus NR100 incubated for 16 to 18 hrs by broth microdilution assay; type: functional
Staphylococcus aureus [7] = assay: Antibacterial activity against Staphylococcus aureus ATCC 29213 assessed as post antibiotic effect time at 10 times MIC incubated for 1 hr followed by compound washout and measured at 1 hr intervals (reference value: 0 hrs); type: functional
Staphylococcus aureus [8] = assay: Antibacterial activity against Staphylococcus aureus ATCC 29213 assessed as time required to increase 1 log10 CFU at MIC incubated for 1 hr followed by compound washout and measured at 1 hr intervals (reference value: 2 hrs); type: functional
Staphylococcus aureus [9] = assay: Antibacterial activity against methicillin-resistant Staphylococcus aureus NR10193 incubated for 16 to 18 hrs by broth microdilution assay; type: functional
Staphylococcus aureus [10] = assay: Antibacterial activity against methicillin-resistant Staphylococcus aureus NR119 incubated for 16 to 18 hrs by broth microdilution assay; type: functional
Staphylococcus aureus [11] = assay: Antibacterial activity against methicillin-susceptible Staphylococcus aureus ATCC 29213 incubated for 16 to 18 hrs by broth microdilution assay; type: functional
Staphylococcus aureus [12] = assay: Antibacterial activity against vancomycin-resistant Staphylococcus aureus VRS1 incubated for 16 to 18 hrs by broth microdilution assay; type: functional
Staphylococcus aureus [13] = assay: Antibacterial activity against methicillin-resistant Staphylococcus aureus NR10191 incubated for 16 to 18 hrs by broth microdilution assay; type: functional
Staphylococcus aureus [14] = assay: Antibacterial activity against methicillin-resistant Staphylococcus aureus NR10186 incubated for 16 to 18 hrs by broth microdilution assay; type: functional
Staphylococcus aureus [15] = assay: Antibacterial activity against vancomycin-resistant Staphylococcus aureus VRS12 incubated for 16 to 18 hrs by broth microdilution assay; type: functional
Staphylococcus aureus [16] = assay: Antibacterial activity against methicillin-resistant Staphylococcus aureus NR10198 incubated for 16 to 18 hrs by broth microdilution assay; type: functional
Staphylococcus aureus [17] = assay: Antibiofilm activity against Staphylococcus aureus ATCC 29213 at 10 times MIC incubated 48 hrs by crystal violet staining based assay relative to control; type: functional
Staphylococcus aureus [18] = assay: Antibacterial activity against methicillin-resistant Staphylococcus aureus NR10194 incubated for 16 to 18 hrs by broth microdilution assay; type: functional
Staphylococcus aureus [19] = assay: Antibacterial activity against methicillin-resistant Staphylococcus aureus NR10129 incubated for 16 to 18 hrs by broth microdilution assay; type: functional
Staphylococcus aureus [20] = assay: Antibacterial activity against methicillin-resistant Staphylococcus aureus NR10192 incubated for 16 to 18 hrs by broth microdilution assay; type: functional
Staphylococcus aureus [21] = assay: Antibacterial activity against vancomycin-resistant Staphylococcus aureus VRS4 incubated for 16 to 18 hrs by broth microdilution assay; type: functional
Staphylococcus aureus [22] = assay: Antibacterial activity against Staphylococcus aureus ATCC 29213 assessed as post antibiotic effect time at MIC incubated for 1 hr followed by compound washout and measured at 1 hr intervals (reference value: 0 hrs); type: functional
Staphylococcus aureus [23] = assay: Antibacterial activity against Staphylococcus aureus ATCC 29213 assessed as time required to increase 1 log10 CFU at 10 times MIC incubated for 1 hr followed by compound washout and measured at 1 hr intervals (reference value: 2 hrs); type: functional
Staphylococcus aureus [24] = assay: Antimicrobial activity against Staphylococcus aureus ATCC 29213 infected in BALB/c mouse model of neutropenic thigh infection assessed reduction in bacterial levels in thigh at 25 mg/kg, ip administered 3 hrs post infection twice at interval of 3 hrs between injections and measured after 24 hrs; type: functional, organism-based

SMILES	MIC (Escherichia coli) [µg/mL]	MIC (Staphylococcus aureus [1]) [µg/mL]	MIC (Pseudomonas aeruginosa) [µg/mL]	MIC (Acinetobacter baumannii) [µg/mL]	CC50 at 72 h [2] [µg/mL]	MIC (Klebsiella pneumoniae) [µg/mL]	MIC [4] [µg/mL]	selectivity ratio [5]	other results
C#Cc1cccc(-n2c(/C=C/c3ccc(C#N)cc3)nc3cccc(F)c3c2=O)c1	> 64	0.25 (≈ 0.639 µM)	> 64	> 64	> 10	> 64	> 64	–	selectivity ratio [3]: > 40
C#CCNc1ccc2c(=O)n(-c3ccccc3)c(C)nc2c1	> 64	> 64	> 64	> 64	> 100	> 64	4 (≈ 13.8 µM)	> 25	–
Cc1nc2cc(-c3ccc(F)cc3)ccc2c(=O)n1-c1cccc(Cl)c1	> 64	> 64	> 64	> 64	> 15	> 64	16 (≈ 43.9 µM)	> 0.93	–
Cc1nc2ccc(OCc3cn(-c4cccc(Cl)c4)nn3)cc2c(=O)n1-c1ccccc1	> 64	> 64	> 64	> 64	> 100	> 64	16 (≈ 36 µM)	> 6.25	–
C#CCOc1cccc(-n2c(/C=C/c3ccc(C#N)cc3)nc3cccc(F)c3c2=O)c1	> 64	0.5 (≈ 1.19 µM)	> 64	> 64	5 to 10 (≈ 11.9 to 23.7 µM)	> 64	2 (≈ 4.75 µM)	> 5	selectivity ratio [3]: > 10
C[C@H]1COc2c(N3CCN(C)CC3)c(F)cc3c(=O)c(C(=O)O)cn1c23.C[C@H]1COc2c(N3CCN(C)CC3)c(F)cc3c(=O)c(C(=O)O)cn1c23.O [LEVOFLOXACIN]	–	0.125 to 0.25	0.5	–	–	64	–	–	MIC (Staphylococcus aureus [6]): < 0.5 µg/mL; Time (Staphylococcus aureus [7]): 1 h; Time (Staphylococcus aureus [8]): 3 h; MIC (Staphylococcus aureus [9]): 32 µg/mL; MIC (Staphylococcus aureus [10]): 16 µg/mL; MIC (Staphylococcus aureus [11]): < 0.5 µg/mL; MIC (Staphylococcus aureus [12]): 32 µg/mL; MIC (Staphylococcus aureus [13]): 16 to 32 µg/mL; MIC (Staphylococcus aureus [14]): 4 to 8 µg/mL; MIC (Staphylococcus aureus [15]): 32 to 64 µg/mL; MIC (Staphylococcus aureus [16]): 32 µg/mL; Activity (Staphylococcus aureus [17]): 30.6%; MIC (Staphylococcus aureus [18]): 0.5 µg/mL; MIC (Staphylococcus aureus [19]): 0.5 µg/mL; MIC (Staphylococcus aureus [20]): 4 to 8 µg/mL; MIC (Staphylococcus aureus [21]): > 64 µg/mL; Time (Staphylococcus aureus [22]): 1 h; Time (Staphylococcus aureus [23]): 3 h
C[C@@H](O)[C@H]1C(=O)N2C(C(=O)O)=C(S[C@@H]3CN[C@H](C(=O)N(C)C)C3)[C@H](C)[C@H]12 [MEROPENEM]	–	0.25 (≈ 0.652 µM)	–	–	–	–	–	–	MIC (Staphylococcus aureus [6]): > 64 µg/mL; MIC (Staphylococcus aureus [9]): 32 µg/mL (≈ 83.4 µM); MIC (Staphylococcus aureus [10]): > 64 µg/mL; MIC (Staphylococcus aureus [11]): < 0.5 µg/mL; MIC (Staphylococcus aureus [12]): > 64 µg/mL; MIC (Staphylococcus aureus [13]): > 64 µg/mL; MIC (Staphylococcus aureus [14]): 16 to 32 µg/mL (≈ 41.7 to 83.4 µM); MIC (Staphylococcus aureus [15]): > 64 µg/mL; MIC (Staphylococcus aureus [16]): 32 µg/mL (≈ 83.4 µM); MIC (Staphylococcus aureus [18]): 0.5 µg/mL (≈ 1.3 µM); MIC (Staphylococcus aureus [19]): 16 µg/mL (≈ 41.7 µM); MIC (Staphylococcus aureus [20]): 4 to 8 µg/mL (≈ 10.4 to 20.9 µM); MIC (Staphylococcus aureus [21]): > 64 µg/mL
Cc1nc2ccc(OCc3cn(-c4ccc(Cl)cc4)nn3)cc2c(=O)n1-c1ccccc1	> 64	> 64	> 64	> 64	> 33.3	> 64	16 (≈ 36 µM)	> 2.08	–
CN[C@H](CC(C)C)C(=O)N[C@H]1C(=O)N[C@@H](CC(N)=O)C(=O)N[C@H]2C(=O)N[C@H]3C(=O)N[C@H](C(=O)N[C@H](C(=O)O)c4cc(O)cc(O)c4-c4cc3ccc4O)[C@H](O)c3ccc(c(Cl)c3)Oc3cc2cc(c3O[C@@H]2O[C@H](CO)[C@@H](O)[C@H](O)[C@H]2O[C@H]2C[C@](C)(N)[C@H](O)[C@H](C)O2)Oc2ccc(cc2Cl)[C@H]1O [VANCOMYCIN]	–	–	–	–	–	–	–	–	Time (Staphylococcus aureus [7]): 2 h; Time (Staphylococcus aureus [8]): 3 h; MIC (Staphylococcus aureus [12]): > 64 µg/mL; MIC (Staphylococcus aureus [15]): > 64 µg/mL; Activity (Staphylococcus aureus [17]): 7.7%; MIC (Staphylococcus aureus [21]): > 64 µg/mL; Time (Staphylococcus aureus [22]): 1 h; Activity (Staphylococcus aureus [24]): Active; Time (Staphylococcus aureus [23]): 4 h
CC(C)(C)c1ccc(-n2c(/C=C/c3ccc(C#N)cc3)nc3ncccc3c2=O)cc1	> 64	> 64	> 64	> 64	–	> 64	> 64	–	–
Cc1nc2cc(-n3cc(-c4ccc(Br)cc4)nn3)ccc2c(=O)n1-c1ccccc1	> 64	64 (≈ 140 µM)	> 64	> 64	–	> 64	64 (≈ 140 µM)	–	–
